The text below walks through data of ChEMBL document CHEMBL1201862, “PubChem BioAssay data set” (2004).

The source made the active and inactive calls.

In assay [1] the target is T1, High affinity choline transporter 1 (Homo sapiens, UniProt Q9GZV3).
T1 sequence (Q9GZV3 whole entry): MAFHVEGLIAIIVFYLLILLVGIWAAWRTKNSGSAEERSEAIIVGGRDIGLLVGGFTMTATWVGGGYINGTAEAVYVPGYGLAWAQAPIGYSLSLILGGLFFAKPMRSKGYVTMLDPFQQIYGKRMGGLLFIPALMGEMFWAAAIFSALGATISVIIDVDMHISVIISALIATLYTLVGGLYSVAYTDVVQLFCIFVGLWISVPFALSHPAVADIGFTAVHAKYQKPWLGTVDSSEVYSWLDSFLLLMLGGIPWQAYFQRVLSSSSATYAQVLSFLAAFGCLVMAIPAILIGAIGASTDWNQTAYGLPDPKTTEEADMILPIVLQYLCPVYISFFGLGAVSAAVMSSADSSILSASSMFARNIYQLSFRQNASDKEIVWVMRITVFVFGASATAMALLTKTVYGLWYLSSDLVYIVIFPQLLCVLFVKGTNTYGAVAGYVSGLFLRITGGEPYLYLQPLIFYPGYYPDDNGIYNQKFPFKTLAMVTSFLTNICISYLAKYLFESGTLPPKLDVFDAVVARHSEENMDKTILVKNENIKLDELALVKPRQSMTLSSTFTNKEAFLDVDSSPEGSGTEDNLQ
The assay can be described thus: human choline transporter blockers, potency – cell-based, 10-point CRC, membrane potential dye, dose response (AID 588401).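 Note: membrane potential dye fluorescence of choline-evoked depolarization via CHT.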 The format is functional.

Assay [2] concerns the target T1, High affinity choline transporter 1. Description: human choline transporter blockers, potency – cell-based, 5-point CRC, membrane potential dye, dose response (AID 504840). The format is functional.
Assay [3] has as its target G protein-coupled receptor kinase 5 (Homo sapiens, UniProt P34947). Description: Navigating the Kinome. Panel member name: GPRK5. It is filed as functional.
For assay [4], the target named is Mitogen-activated protein kinase kinase kinase kinase 4 (Homo sapiens, UniProt O95819). It is filed as functional.
For assay [5], the target named is Death-associated protein kinase 3 (Homo sapiens, UniProt O43293). The format is functional.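 Note: measured as one member of a kinome-wide profiling panel.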
The target in assay [6] is Cyclin-dependent kinase 8 (Homo sapiens, UniProt P49336). The assay can be described thus: Navigating the Kinome. Panel member name: CDK8. It is filed as functional.
The target in assay [7] is Tyrosine-protein kinase Fyn (Homo sapiens, UniProt P06241). The format is functional.
Assay [8] addresses Fibroblast growth factor receptor 1 (Homo sapiens, UniProt P11362). It is filed as functional.
For assay [9], the target named is Calcium/calmodulin-dependent protein kinase type II subunit alpha (Homo sapiens, UniProt Q9UQM7). The assay can be described thus: Navigating the Kinome. Panel member name: CAMK2A. The format is functional.
Assay [10] concerns the target Tyrosine-protein kinase Lck (Homo sapiens, UniProt P06239). The format is functional.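 Note: lck was assayed as one member of a kinase panel.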
Assay [11] deals with Serine/threonine-protein kinase TBK1 (Homo sapiens, UniProt Q9UHD2). The assay can be described thus: Navigating the Kinome. Panel member name: TBK1. The format is functional.
The target in assay [12] is ALK tyrosine kinase receptor (Homo sapiens, UniProt Q9UM73). It is filed as functional.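 Note: ALK tested as one member of a kinase panel screen.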
For assay [13], the target named is Mitogen-activated protein kinase 14 (Homo sapiens, UniProt Q16539). It is filed as functional.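 Note: part of a kinome-wide panel, MAPK14 entry.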
The target of assay [14] is Dual specificity mitogen-activated protein kinase kinase 2 (Homo sapiens, UniProt P36507). Description: Navigating the Kinome. Panel member name: MAP2K2. It is filed as functional.
For assay [15], the target named is Tyrosine-protein kinase BTK (Homo sapiens, UniProt Q06187). It is filed as functional.
The target in assay [16] is High affinity nerve growth factor receptor (Homo sapiens, UniProt P04629). The format is functional.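 Note: NTRK1 tested as one member of a kinome-wide profiling panel.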
Assay [17] concerns the target Receptor-type tyrosine-protein kinase FLT3 (Homo sapiens, UniProt P36888). The format is functional.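 Note: FLT3 was tested as one member of a kinome-wide kinase panel.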
For assay [18], the target named is Serine/threonine-protein kinase PAK 4 (Homo sapiens, UniProt O96013). The format is functional.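 Note: value obtained within a kinome profiling panel in which PAK4 was one of the panel members.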
In assay [19] the target is Tyrosine-protein kinase receptor TYRO3 (Homo sapiens, UniProt Q06418). It is filed as functional.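 Note: TYRO3 value obtained as one member of a kinome-wide profiling panel.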
The target in assay [20] is 5'-AMP-activated protein kinase catalytic subunit alpha-1 (Homo sapiens, UniProt Q13131). The format is functional.
Assay [21] concerns the target Dual specificity protein kinase CLK4 (Homo sapiens, UniProt Q9HAZ1). The format is functional.
Assay [22] deals with Serine/threonine-protein kinase N2 (Homo sapiens, UniProt Q16513). It is filed as functional.
In assay [23] the target is Mitogen-activated protein kinase kinase kinase kinase 2 (Homo sapiens, UniProt Q12851). The format is functional.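 Note: measured as one member of a kinome-wide kinase panel, with MAP4K2 as the panel entry.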
In assay [24] the target is Tyrosine-protein kinase JAK2 (Homo sapiens, UniProt O60674). It is filed as functional.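 Note: JAK2 tested as one member of a kinase panel.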
In assay [25] the target is Vascular endothelial growth factor receptor 1 (Homo sapiens, UniProt P17948). The format is functional.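 Note: measured within a kinome-wide profiling panel, FLT1 as the panel member.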
The target in assay [26] is Insulin-like growth factor 1 receptor (Homo sapiens, UniProt P08069). Description: Navigating the Kinome. Panel member name: IGF1R. The format is functional.
Assay [27] addresses Vascular endothelial growth factor receptor 2 (Homo sapiens, UniProt P35968). The format is functional.
For assay [28], the target named is Tyrosine-protein kinase JAK3 (Homo sapiens, UniProt P52333). The format is functional.
The target of assay [29] is Tyrosine-protein kinase ABL1 (Homo sapiens, UniProt P00519). The format is functional.
Assay [30] has as its target Serine/threonine-protein kinase TAO1 (Homo sapiens, UniProt Q7L7X3). The format is functional.
The target of assay [31] is Dual specificity protein kinase CLK2 (Homo sapiens, UniProt P49760). It is filed as functional.
For assay [32], the target named is Platelet-derived growth factor receptor alpha (Homo sapiens, UniProt P16234). The assay can be described thus: Navigating the Kinome. Panel member name: PDGFRA. The format is functional.
Assay [33] concerns the target Aurora kinase A (Homo sapiens, UniProt O14965). It is filed as functional.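 Note: value from the Navigating the Kinome kinase panel profiling, panel entry STK6.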
The target of assay [34] is Serine/threonine-protein kinase pim-1 (Homo sapiens, UniProt P11309). The format is functional.
Assay [35] addresses Glycogen synthase kinase-3 alpha (Homo sapiens, UniProt P49840). It is filed as functional.
Assay [36] addresses MAP/microtubule affinity-regulating kinase 3 (Homo sapiens, UniProt P27448). The format is functional.
The target in assay [37] is cAMP-dependent protein kinase catalytic subunit alpha (Homo sapiens, UniProt P17612). The format is functional.
For assay [38], the target named is Mitogen-activated protein kinase 9 (Homo sapiens, UniProt P45984). The format is functional.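 Note: value from a kinome panel profiling assay, MAPK9 panel entry.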
Assay [39] deals with cAMP-dependent protein kinase catalytic subunit PRKX (Homo sapiens, UniProt P51817). It is filed as functional.
In assay [40] the target is Macrophage-stimulating protein receptor (Homo sapiens, UniProt Q04912). Description: Navigating the Kinome. Panel member name: MST1R. It is filed as functional.
The target in assay [41] is Cyclin-dependent kinase 9 (Homo sapiens, UniProt P50750). The format is functional.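 Note: value from the CDK9 entry of a kinome-spanning kinase panel.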
In assay [42] the target is Mitogen-activated protein kinase 8 (Homo sapiens, UniProt P45983). It is filed as functional.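 Note: value comes from one member of a kinome-wide kinase profiling panel.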
Assay [43] has as its target Macrophage colony-stimulating factor 1 receptor (Homo sapiens, UniProt P07333). It is filed as functional.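 Note: value comes from the Navigating the Kinome screening panel, CSF1R member.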
In assay [44] the target is Inhibitor of nuclear factor kappa-B kinase subunit epsilon (Homo sapiens, UniProt Q14164). Description: Navigating the Kinome. Panel member name: IKBKE. The format is functional.
In assay [45] the target is Dual specificity tyrosine-phosphorylation-regulated kinase 1A (Homo sapiens, UniProt Q13627). The format is functional.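 Note: measured against DYRK1A as one member of a broad kinome profiling panel.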
Assay [46] concerns the target Dual specificity mitogen-activated protein kinase kinase 1 (Homo sapiens, UniProt Q02750). Description: Navigating the Kinome. Panel member name: MAP2K1. The format is functional.
Assay [47] concerns the target Mitogen-activated protein kinase kinase kinase kinase 5 (Homo sapiens, UniProt Q9Y4K4). The format is functional.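 Note: measured as one member of a kinome-spanning kinase panel.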
Assay [48] concerns the target Glycogen synthase kinase-3 beta (Homo sapiens, UniProt P49841). It is filed as functional.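 Note: value comes from a broad kinome profiling panel, with GSK3B as the panel member.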
Assay [49] has as its target Leukocyte tyrosine kinase receptor (Homo sapiens, UniProt P29376). Description: Navigating the Kinome. Panel member name: LTK. The format is functional.
In assay [50] the target is Leucine-rich repeat serine/threonine-protein kinase 2 (Homo sapiens, UniProt Q5S007). It is filed as functional.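 Note: value from a broad kinome-wide panel profiling study in which LRRK2 was one of the kinases tested.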
Assay [51] has as its target T2, Streptokinase A (Streptococcus pyogenes serotype M1, UniProt P10520).
T2 sequence (P10520 whole entry): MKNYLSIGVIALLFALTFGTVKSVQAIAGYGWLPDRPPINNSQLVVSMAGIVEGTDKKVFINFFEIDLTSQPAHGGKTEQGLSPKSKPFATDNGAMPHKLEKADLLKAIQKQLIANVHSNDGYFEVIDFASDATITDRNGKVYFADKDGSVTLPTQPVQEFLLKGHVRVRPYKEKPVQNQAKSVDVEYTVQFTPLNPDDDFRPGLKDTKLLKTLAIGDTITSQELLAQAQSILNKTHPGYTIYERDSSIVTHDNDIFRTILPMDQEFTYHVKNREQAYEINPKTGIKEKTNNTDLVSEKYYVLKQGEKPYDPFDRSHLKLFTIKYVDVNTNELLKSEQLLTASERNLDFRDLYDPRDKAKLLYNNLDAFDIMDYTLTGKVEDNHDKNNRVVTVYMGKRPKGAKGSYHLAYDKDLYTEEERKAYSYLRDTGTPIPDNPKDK
Description: viability-normalized secreted streptokinase activity reduction – plasminogen activation absorbance, OD405, dose response (AID 1914).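 Note: secreted streptokinase activity via plasminogen activation per viability signal from cell pellet.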 The format is functional, Streptococcus pyogenes M1 GAS.

Assay [52] deals with Multidrug resistance protein CDR1 (Candida albicans, UniProt P43071). Description: inhibition of Nile Red efflux via Candida CDR1 – S. cerevisiae AD1-8u, singleplex, Cherry Pick1 hits, dose response (AID 588606). It is filed as functional.
Assay [53] has as its system Streptococcus sp. 'group A'. Description: Streptococcus pyogenes SK(-)GAS viability under kanamycin – luminescence, BacTiterGlo, confirmation, counter-screen for streptokinase expression inhibitor project, dose response (AID 1900). The format is functional, organism-based. (Counterscreens check selectivity or assay interference.)
In assay [54] the target is Multidrug resistance protein CDR2 (Candida albicans (strain SC5314 / ATCC MYA-2876) (Yeast), UniProt P78595). Description: inhibition of Nile Red efflux via Candida CDR2 – S. cerevisiae AD1-8u, singleplex, Cherry Pick1 hits, dose response (AID 588604). It is filed as functional.
In assay [55] the test system is Streptococcus. The assay can be described thus: GAS UMAA2166 growth inhibition – luminescence, BacTiterGlo, counter-screen for streptokinase expression inhibitor project, dose response (AID 1915).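 Note: potency for reduction of bacterial viability or growth.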 It is filed as functional, organism-based.
Assay [56] is described as follows: Luminescence Cell-Based Dose Confirmation HTS to Identify Inhibitors of Polyadenylation. It is filed as functional.
Assay [57] in a line: microbe, parasite or virus in culture. The format is functional. Conditions: Mycobacterium tuberculosis.

Tyrosine-protein kinase BTK, sequence (Q06187 whole entry): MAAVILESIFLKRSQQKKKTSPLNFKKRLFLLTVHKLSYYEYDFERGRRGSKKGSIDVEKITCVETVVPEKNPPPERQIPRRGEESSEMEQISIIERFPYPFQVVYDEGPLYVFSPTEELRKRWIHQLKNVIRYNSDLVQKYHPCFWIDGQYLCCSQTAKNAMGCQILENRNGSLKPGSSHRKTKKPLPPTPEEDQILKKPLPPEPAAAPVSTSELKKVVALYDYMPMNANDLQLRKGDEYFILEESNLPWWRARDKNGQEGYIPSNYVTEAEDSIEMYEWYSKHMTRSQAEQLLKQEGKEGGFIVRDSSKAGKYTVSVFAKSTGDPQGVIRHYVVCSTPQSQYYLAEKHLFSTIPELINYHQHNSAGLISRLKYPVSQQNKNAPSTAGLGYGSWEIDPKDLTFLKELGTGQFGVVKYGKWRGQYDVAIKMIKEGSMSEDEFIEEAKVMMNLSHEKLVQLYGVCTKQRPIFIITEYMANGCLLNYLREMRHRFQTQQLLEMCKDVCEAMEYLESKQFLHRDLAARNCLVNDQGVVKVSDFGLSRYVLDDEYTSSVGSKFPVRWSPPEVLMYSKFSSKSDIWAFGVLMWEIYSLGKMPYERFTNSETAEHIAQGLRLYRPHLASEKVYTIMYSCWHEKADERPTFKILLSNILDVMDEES
High affinity nerve growth factor receptor, sequence (P04629 whole entry): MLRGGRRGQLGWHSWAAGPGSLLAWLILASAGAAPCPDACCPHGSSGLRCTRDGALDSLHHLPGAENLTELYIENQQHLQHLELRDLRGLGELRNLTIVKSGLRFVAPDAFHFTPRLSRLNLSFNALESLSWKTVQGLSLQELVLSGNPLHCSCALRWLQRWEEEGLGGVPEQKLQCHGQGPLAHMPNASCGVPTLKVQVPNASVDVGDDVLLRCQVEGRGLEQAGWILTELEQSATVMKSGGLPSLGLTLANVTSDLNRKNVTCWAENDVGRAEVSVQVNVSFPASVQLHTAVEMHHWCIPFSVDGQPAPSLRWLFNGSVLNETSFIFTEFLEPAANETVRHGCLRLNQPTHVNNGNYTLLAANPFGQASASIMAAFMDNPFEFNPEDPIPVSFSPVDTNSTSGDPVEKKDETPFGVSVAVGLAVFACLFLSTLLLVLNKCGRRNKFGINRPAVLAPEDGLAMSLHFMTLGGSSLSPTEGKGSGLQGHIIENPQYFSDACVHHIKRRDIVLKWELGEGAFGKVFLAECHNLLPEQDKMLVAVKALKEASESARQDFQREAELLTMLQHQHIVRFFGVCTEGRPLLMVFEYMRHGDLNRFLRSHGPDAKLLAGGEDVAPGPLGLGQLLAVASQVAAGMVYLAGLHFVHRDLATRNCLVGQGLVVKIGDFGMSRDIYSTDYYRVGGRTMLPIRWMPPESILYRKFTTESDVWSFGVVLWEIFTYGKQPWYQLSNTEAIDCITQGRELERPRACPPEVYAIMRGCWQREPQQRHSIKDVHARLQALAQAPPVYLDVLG
Mitogen-activated protein kinase kinase kinase kinase 5, sequence (Q9Y4K4 whole entry): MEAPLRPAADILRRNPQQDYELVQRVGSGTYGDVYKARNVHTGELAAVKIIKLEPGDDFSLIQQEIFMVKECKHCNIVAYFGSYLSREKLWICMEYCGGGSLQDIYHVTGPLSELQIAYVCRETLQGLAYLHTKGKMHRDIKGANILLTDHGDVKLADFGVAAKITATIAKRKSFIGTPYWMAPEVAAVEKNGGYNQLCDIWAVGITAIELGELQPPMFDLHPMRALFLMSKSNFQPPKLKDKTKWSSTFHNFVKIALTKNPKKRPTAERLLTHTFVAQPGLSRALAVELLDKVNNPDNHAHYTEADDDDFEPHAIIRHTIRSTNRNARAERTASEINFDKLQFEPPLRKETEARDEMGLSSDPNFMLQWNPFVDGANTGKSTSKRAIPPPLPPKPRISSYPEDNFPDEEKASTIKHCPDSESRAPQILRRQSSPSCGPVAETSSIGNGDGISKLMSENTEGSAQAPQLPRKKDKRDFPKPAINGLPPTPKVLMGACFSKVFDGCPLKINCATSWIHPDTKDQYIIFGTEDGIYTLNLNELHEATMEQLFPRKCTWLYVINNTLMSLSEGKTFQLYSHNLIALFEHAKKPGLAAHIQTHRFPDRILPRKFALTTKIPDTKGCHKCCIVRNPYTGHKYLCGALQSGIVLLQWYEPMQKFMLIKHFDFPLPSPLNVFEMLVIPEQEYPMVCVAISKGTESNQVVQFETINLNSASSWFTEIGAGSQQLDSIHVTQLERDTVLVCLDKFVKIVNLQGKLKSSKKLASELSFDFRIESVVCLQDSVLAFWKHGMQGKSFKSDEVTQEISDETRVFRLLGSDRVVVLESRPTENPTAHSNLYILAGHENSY
Inhibitor of nuclear factor kappa-B kinase subunit epsilon, sequence (Q14164 whole entry): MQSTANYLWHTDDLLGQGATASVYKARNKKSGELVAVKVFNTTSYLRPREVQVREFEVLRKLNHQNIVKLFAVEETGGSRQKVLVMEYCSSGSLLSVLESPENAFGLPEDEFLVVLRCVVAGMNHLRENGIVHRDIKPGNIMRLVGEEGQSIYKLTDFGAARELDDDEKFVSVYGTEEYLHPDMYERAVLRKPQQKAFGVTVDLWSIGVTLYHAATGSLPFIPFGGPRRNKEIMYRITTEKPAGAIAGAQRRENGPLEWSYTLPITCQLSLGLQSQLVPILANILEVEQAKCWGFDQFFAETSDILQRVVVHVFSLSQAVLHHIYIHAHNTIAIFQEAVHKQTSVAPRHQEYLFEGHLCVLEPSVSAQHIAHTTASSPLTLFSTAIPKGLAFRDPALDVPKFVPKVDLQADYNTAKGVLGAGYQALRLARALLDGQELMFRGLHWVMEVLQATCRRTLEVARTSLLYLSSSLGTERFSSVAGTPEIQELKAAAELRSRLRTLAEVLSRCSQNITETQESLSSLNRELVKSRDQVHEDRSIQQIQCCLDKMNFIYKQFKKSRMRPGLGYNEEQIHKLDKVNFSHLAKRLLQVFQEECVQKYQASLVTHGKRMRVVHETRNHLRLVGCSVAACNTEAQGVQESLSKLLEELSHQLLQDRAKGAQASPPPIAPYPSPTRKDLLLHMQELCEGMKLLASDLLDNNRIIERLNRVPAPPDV
Serine/threonine-protein kinase PAK 4, sequence (O96013 whole entry): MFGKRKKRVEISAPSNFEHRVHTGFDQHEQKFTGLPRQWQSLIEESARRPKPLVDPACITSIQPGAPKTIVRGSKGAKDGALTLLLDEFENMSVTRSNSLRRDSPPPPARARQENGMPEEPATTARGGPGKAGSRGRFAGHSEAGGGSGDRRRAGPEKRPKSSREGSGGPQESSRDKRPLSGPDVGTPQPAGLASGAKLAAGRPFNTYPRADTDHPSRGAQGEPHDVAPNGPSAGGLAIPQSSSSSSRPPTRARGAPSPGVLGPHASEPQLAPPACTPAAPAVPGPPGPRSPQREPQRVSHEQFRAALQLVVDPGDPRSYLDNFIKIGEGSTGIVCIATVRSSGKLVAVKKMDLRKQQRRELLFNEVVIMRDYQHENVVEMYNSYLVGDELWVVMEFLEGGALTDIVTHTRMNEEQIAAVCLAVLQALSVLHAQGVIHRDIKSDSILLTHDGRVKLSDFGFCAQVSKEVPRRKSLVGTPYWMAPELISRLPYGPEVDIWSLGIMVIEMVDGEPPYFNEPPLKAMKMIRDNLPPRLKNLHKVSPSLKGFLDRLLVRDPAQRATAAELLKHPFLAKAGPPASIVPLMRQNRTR
Cyclin-dependent kinase 9, sequence (P50750 whole entry): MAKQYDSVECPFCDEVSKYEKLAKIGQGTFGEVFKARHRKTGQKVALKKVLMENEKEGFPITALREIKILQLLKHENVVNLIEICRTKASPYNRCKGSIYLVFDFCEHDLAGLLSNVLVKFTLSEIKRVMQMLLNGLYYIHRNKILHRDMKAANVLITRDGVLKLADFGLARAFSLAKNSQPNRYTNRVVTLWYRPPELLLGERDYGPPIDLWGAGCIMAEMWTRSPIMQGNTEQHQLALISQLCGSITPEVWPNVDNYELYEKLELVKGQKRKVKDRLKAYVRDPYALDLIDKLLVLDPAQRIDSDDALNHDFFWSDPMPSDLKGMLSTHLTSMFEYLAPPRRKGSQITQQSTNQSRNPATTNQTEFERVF
Mitogen-activated protein kinase 14, sequence (Q16539 whole entry): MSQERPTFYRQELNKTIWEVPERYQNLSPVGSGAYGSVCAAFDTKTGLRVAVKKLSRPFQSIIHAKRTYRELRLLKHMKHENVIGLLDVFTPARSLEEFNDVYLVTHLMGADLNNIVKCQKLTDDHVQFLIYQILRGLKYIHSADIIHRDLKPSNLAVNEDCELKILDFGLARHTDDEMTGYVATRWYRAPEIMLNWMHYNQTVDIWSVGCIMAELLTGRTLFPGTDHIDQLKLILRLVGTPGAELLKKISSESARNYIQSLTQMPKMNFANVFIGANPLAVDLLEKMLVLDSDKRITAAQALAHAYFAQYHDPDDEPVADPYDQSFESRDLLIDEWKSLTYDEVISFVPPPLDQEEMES
cAMP-dependent protein kinase catalytic subunit PRKX, sequence (P51817 whole entry): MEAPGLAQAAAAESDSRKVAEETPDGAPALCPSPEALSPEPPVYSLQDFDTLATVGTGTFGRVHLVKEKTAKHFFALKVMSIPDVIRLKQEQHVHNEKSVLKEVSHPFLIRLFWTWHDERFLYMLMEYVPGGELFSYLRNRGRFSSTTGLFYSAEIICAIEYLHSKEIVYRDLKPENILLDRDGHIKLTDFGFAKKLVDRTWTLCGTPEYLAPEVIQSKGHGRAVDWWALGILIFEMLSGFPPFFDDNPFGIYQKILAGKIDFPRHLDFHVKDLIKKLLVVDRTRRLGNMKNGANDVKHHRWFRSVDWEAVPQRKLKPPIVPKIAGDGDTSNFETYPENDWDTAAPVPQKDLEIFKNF
Serine/threonine-protein kinase pim-1, sequence (P11309 whole entry): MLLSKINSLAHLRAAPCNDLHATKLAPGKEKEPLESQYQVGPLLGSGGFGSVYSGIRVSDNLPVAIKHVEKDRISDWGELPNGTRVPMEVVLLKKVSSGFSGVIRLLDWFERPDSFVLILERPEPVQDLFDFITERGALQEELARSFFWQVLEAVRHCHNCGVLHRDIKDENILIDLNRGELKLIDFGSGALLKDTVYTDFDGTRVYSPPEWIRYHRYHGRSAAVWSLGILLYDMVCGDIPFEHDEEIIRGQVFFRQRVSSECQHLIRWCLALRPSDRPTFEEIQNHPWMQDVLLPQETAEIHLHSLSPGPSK

Broadly, the IC50 is the concentration at which inhibition is half-maximal. As for `Cc1nn2c(N3CCN(CCO)CC3)c3c(nc2c1-c1ccccc1)CCCC3`, the results for the IC50 in assay [1] and in assay [2] were 4.74 µM (active) and 6.95 µM (active), respectively.
The term Ki denotes a measure of affinity in units of concentration, obtained from inhibition or displacement. For `Cc1cc(O)nc2[nH]nc(-c3cccc(-c4ccc(C#N)cc4)c3)c12`, the Ki in [3] was > 3.98 µM (inactive); in assay [4], > 5.01 µM (inactive); in assay [5] it was > 5.01 µM (inactive); in [6], > 3.98 µM (inactive); in assay [7], > 6.31 µM (inactive); in assay [8], > 3.98 µM (inactive). In addition, the Ki is > 7.94 µM (inactive) in assay [9]; > 6.31 µM (inactive) in assay [10]; > 3.16 µM (inactive) in assay [11]; > 6.31 µM (inactive) in assay [12]; > 3.98 µM (inactive) in [13]; > 3.98 µM (inactive) in assay [14]. Also, the Ki is > 6.31 µM (inactive) in [15]; > 3.16 µM (inactive) in [16]; > 3.16 µM (inactive) in assay [17]; > 5.01 µM (inactive) in assay [18]; > 3.16 µM (inactive) in assay [19]; > 3.16 µM (inactive) in assay [20]. Further, the Ki in assay [21] was > 2.51 µM (inactive); in assay [22], > 5.01 µM (inactive); in assay [23], > 2.51 µM (inactive); in assay [24] it was > 2.51 µM (inactive); in assay [25], > 3.98 µM (inactive); in assay [26], > 2.51 µM (inactive). Further, the Ki in assay [27] was > 2.51 µM (inactive); in [28], > 5.01 µM (inactive); in [29], > 3.98 µM (inactive); in [30] it was > 6.31 µM (inactive); in assay [31], > 3.98 µM (inactive); in assay [32], > 2.51 µM (inactive). Also, the Ki was > 1.58 µM (inactive) in [33]; > 6.31 µM (inactive) in assay [34]; 3.98 µM (active) in [35]; 0.001 µM (active) in assay [36]; > 1.26 µM (inactive) in [37]; > 3.98 µM (inactive) in [38]. The Ki in assay [39] is > 3.16 µM (inactive); in [40] it was > 3.98 µM (inactive); in [41], > 1.58 µM (inactive); in assay [42] it was > 5.01 µM (inactive); in [43], > 2.51 µM (inactive); in assay [44], > 3.16 µM (inactive). The Ki was > 2 µM (inactive) in assay [45]; > 3.16 µM (inactive) in [46]; > 3.98 µM (inactive) in assay [47]; > 3.98 µM (inactive) in assay [48]; > 2.51 µM (inactive) in assay [49]; > 2.51 µM (inactive) in [50].
A word on the EC50: it is the concentration needed to bring the measured effect to its halfway point. `CCc1ccc(NC2=NC(=O)/C(=C/c3cc(OC)c(O)c(OC)c3)S2)cc1`: the EC50 in assay [51] is > 150 µM (not active); in assay [52], 6.05 µM (active); in [53], 2.67 µM (active); in assay [54], 19.2 µM (active); in assay [55], 28.2 µM (active); in assay [56], 10.5 µM (active). Moreover, the CC50 in [57] was > 40 µM (active).
